Measured values taken from patent publication US12350259B2, “Methods of treating migraine” (Allergan Pharmaceuticals International Limited, priority 2021, dated 2025).

Legend:
[1] = Atogepant-esomeprazole drug interaction study: atogepant PK; format: in vivo, human; details: for Tmax: human, plasma, oral
Description: A phase 1, open-label, 2-intervention, single-sequence, nonrandomized, crossover, drug-drug interaction study was conducted to evaluate the effects of multiple-dose esomeprazole magnesium 40 mg on pharmacokinetics (PK) and safety of co-administered single-dose atogepant 60 mg in healthy adults.
In this study, healthy adult participants received single-dose oral atogepant 60 mg on day 1, followed by once-daily esomeprazole 40 mg on days 7-13, co-administered with single-dose atogepant on day 12. Samples for atogepant PK analysis were collected on days 1 and 12. PK parameters calculated from atogepant plasma concentrations included peak plasma concentration (Cmax); time to Cmax (tmax); area under plasma concentration-time curve from time 0 to […] (AUC0-t) and from time 0 to infinity (AUC0-∞). PK parameters of atogepant alone vs. co-administered with esomeprazole were compared using a mixed-effects model. Statistical significance was achieved if 90% confidence intervals (CIs) for geometric least squares mean ratios (GMRs) of PK parameter values for atogepant co-administered with esomeprazole to atogepant administered alone were within 80%-125%.

[2] = Atogepant-quinidine gluconate (P-gp inhibition) drug interaction study: atogepant PK; format: in vivo, human
Description: A phase 1, single-center, single-sequence, open-label, 2-intervention, drug-drug interaction study was conducted to evaluate the effects of P-glycoprotein (P-gp) inhibition by quinidine gluconate on pharmacokinetics (PK) and safety of atogepant. In this study, healthy adults received atogepant 60 mg on day 1, quinidine gluconate 324 mg twice daily on Day 8, quinidine gluconate 648 mg twice-daily on days 9-12, and atogepant 60 mg co-administered on day 11. Plasma samples were collected on days 1 and 11.
Atogepant PK parameters calculated were peak plasma concentration (Cmax); time to Cmax (tmax); and area under plasma concentration—time curve from time 0 to time t (AUC0-t) and infinity (AUC0-∞). PK parameters of atogepant co-administered with quinidine gluconate vs. atogepant administered alone were compared using a mixed-effects model. Statistical significance was achieved if 90% confidence intervals (Cis) for least squares geometric mean ratios (GMRs) of PK parameter values for atogepant co-administered with quinidine gluconate to atogepant administered alone were within 80%-125%. Safety assessments included clinical laboratory values, vital signs, electrocardiograms, and […] adverse events (TEAEs).

[3] = Atogepant-quinidine gluconate interaction study: safety; format: in vivo, human; details: atogepant 60 mg alone or with quinidine gluconate
Source text: Atogepant PK parameters calculated were peak plasma concentration (Cmax); time to Cmax (tmax); and area under plasma concentration—time curve from time 0 to time t (AUC0-t) and infinity (AUC0-∞). […] Safety assessments included clinical laboratory values, vital signs, electrocardiograms, and […] adverse events (TEAEs).

[4] = tested on: patients with episodic migraine; experiment: Study 2 (NCT02848326): preventive treatment of episodic migraine, efficacy; format: in vivo, human
Description: The studies enrolled patients with at least a 1-year history of migraine with or without aura, according to the International Classification of Headache Disorders (ICHD-3) diagnostic criteria. In Study 1 (NCT03777059), 910 patients were randomized 1:1:1:1 to receive atogepant 10 mg (N=222), atogepant 30 mg (N=230), atogepant 60 mg (N=235), or placebo (N=223), once daily for 12 weeks. In Study 2 (NCT02848326), 652 patients were randomized 1:2:2:2 to receive atogepant 10 mg (N=94), atogepant 30 mg (N=185), atogepant 60 mg (N=187), or placebo (N=186), once daily for 12 weeks. In both studies, patients were allowed to use acute headache treatments (i.e., triptans, ergotamine derivatives, NSAIDs, acetaminophen, and opioids) as needed. The use of a concomitant medication that acts on the CGRP pathway was not permitted for either acute or preventive treatment of migraine. The studies excluded patients with myocardial infarction, stroke, or transient ischemic attacks within six months prior to screening. The primary efficacy endpoint was the change from baseline in mean monthly migraine days across the 12-week treatment period.

[5] = Safety in 12-week placebo-controlled Studies 1 and 2; format: in vivo, human
Description: The safety of atogepant was evaluated in 1958 patients with migraine who received at least one dose of atogepant. Of these, 839 patients were exposed to atogepant once daily for at least 6 months, and 487 patients were exposed for 12 months. In the 12-week, placebo-controlled clinical studies (Study 1 and Study 2, discussed above in Example 7), 314 patients received at least one dose of atogepant 10 mg once daily, 411 patients received at least one dose of atogepant 30 mg once daily, 417 patients received at least one dose of atogepant 60 mg once daily, and 408 patients received placebo. Approximately 88% were female, 80% were White, 17% were Black, and 12% were of Hispanic or Latino ethnicity. The mean age at study entry was 41 years (range 18 to 74 years).

MAO-A = MAO-A (Homo sapiens, UniProt P21397); experiment: Enzyme inhibition; format: in vitro ADME; details: clinically relevant concentrations
OATP1B3 = OATP1B3 (Homo sapiens, UniProt Q9NPD5); experiment: Transporter substrate; format: in vitro ADME
BCRP = BCRP (Homo sapiens, UniProt Q9UNQ0); experiment: Transporter inhibition; format: in vitro ADME; details: clinically relevant concentrations
OAT3 = OAT3 (Homo sapiens, UniProt Q8TCC7); experiment: Transporter inhibition; format: in vitro ADME; details: clinically relevant concentrations
OATP1B1 = OATP1B1 (Homo sapiens, UniProt Q9Y6L6); experiment: Transporter inhibition; format: in vitro ADME
[6] = co-administered with quinidine gluconate
[7] = Study 2, atogepant 10 mg once daily
[8] = Study 2, atogepant 30 mg once daily
[9] = Study 2, atogepant 60 mg once daily
[10] = Studies 1 and 2, atogepant 10 mg (N = 314)
[11] = Studies 1 and 2, atogepant 30 mg (N = 411)
[12] = Studies 1 and 2, atogepant 60 mg (N = 417)

Chain of OAT3 (Q8TCC7 whole entry): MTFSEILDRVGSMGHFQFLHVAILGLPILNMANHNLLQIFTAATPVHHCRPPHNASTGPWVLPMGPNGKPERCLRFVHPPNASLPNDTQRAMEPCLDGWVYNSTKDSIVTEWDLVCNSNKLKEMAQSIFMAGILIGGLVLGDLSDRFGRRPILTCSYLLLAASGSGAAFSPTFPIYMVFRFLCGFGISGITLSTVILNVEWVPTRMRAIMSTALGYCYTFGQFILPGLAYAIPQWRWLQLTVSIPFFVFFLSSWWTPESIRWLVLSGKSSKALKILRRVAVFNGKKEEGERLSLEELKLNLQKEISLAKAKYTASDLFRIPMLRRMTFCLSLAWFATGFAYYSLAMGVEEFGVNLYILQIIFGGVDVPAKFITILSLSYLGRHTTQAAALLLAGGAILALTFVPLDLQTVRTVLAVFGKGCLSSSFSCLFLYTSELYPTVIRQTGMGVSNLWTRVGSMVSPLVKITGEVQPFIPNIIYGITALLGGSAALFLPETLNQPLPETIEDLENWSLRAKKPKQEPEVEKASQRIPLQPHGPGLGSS
Chain of OATP1B1 (Q9Y6L6 whole entry): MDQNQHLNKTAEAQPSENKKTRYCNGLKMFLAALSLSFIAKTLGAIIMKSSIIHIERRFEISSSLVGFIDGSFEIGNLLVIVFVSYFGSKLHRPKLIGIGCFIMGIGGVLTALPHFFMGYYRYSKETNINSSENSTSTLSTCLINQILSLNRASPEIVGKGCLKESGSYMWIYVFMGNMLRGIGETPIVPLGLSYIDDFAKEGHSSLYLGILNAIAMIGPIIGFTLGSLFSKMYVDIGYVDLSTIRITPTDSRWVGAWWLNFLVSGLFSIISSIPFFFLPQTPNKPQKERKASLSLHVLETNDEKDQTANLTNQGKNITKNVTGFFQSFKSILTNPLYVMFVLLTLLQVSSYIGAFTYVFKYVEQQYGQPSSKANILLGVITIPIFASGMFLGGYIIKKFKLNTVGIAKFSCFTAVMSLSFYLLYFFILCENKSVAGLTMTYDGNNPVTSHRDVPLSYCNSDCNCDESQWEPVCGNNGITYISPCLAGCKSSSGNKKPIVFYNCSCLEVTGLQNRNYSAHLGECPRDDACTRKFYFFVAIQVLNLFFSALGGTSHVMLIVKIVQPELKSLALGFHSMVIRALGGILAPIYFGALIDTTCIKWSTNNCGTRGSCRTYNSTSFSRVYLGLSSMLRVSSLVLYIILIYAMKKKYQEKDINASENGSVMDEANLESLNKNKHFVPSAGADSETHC
Chain of MAO-A (P21397 whole entry): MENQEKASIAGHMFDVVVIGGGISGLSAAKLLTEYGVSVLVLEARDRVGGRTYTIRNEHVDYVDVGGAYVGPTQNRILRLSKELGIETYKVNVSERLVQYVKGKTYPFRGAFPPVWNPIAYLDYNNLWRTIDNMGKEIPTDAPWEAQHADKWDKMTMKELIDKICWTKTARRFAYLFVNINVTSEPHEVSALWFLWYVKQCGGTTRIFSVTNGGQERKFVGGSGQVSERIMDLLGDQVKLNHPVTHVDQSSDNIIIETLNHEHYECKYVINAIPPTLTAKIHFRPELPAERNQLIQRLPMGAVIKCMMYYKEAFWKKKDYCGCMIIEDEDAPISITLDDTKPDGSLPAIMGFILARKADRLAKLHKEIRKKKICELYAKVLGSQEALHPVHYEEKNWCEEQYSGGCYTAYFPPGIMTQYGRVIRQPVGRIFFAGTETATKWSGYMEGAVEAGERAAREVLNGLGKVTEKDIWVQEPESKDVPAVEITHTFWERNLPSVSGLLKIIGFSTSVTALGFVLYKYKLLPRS
Chain of BCRP (Q9UNQ0 whole entry): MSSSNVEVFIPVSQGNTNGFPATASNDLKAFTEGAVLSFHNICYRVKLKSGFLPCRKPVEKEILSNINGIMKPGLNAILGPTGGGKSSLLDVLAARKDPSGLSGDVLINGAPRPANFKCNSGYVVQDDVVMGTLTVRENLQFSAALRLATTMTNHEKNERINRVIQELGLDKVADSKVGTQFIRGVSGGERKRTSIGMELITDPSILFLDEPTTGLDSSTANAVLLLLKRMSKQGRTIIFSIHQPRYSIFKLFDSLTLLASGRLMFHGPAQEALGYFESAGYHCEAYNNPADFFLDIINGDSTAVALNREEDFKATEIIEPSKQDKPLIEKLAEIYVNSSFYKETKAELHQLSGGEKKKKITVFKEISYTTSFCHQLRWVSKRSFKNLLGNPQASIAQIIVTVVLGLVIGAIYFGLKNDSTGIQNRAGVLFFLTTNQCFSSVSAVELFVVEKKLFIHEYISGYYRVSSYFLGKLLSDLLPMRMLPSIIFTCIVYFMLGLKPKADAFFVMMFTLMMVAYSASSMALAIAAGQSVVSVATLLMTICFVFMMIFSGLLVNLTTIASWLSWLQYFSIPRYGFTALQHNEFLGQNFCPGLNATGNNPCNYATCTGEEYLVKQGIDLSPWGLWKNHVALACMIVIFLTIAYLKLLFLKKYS
Chain of OATP1B3 (Q9NPD5 whole entry): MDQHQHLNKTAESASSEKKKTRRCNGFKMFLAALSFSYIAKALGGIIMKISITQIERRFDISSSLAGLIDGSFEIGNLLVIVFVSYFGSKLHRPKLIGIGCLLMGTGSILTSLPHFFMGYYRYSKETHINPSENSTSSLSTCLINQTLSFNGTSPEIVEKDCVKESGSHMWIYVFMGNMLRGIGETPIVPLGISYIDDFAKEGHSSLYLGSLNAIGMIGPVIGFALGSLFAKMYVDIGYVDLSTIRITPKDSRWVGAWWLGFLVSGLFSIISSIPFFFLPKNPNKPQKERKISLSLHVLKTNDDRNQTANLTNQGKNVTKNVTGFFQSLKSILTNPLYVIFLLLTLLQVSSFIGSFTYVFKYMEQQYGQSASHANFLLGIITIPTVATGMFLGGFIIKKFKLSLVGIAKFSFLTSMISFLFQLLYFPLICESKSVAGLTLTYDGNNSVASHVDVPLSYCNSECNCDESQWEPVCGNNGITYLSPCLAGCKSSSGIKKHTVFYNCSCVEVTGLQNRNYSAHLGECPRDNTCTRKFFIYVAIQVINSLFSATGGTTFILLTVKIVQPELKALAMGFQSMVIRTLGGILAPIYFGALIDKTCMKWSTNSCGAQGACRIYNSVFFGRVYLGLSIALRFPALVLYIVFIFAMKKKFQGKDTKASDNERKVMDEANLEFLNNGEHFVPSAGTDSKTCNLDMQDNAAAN

Question: With `C[C@@H]1[C@H](c2c(F)ccc(F)c2F)C[C@H](NC(=O)c2cnc3c(c2)C[C@@]2(C3)C(=O)Nc3ncccc32)C(=O)N1CC(F)(F)F` [atogepant, (3′S)-N-[(3S,5S,6R)-6-methyl-2-oxo-1-(2,2,2-trifluoroethyl)-5-(2,3,6-trifluorophenyl)piperidin-3-yl]-2′-oxo-1′,2′,5,7-tetrahydrospiro[cyclopenta[b]pyridine-6,3′-pyrrolo[2,3-b]pyridine]-3-carboxamide] as the molecule, how does the “reduced Cmax” value ([1]; coadministration with esomeprazole) read?
Answer: 23%

Question: What about the Tmax ([1]; 60 mg, atogepant 60 mg alone, read-out: median plasma atogepant tmax) of the same molecule?
Answer: 1.51 h

Question: And the Tmax ([1]; atogepant 60 mg coadministered with esomeprazole 40 mg, read-out: median plasma atogepant tmax)?
Answer: 3 h

Question: What about the Tmax ([1]; coadministration with esomeprazole vs alone, read-out: delay of median tmax) of the same molecule?
Answer: 1.5 h

Question: And the AUC increase [2, 6]?
Answer: approximately 25%

Question: And the Cmax increase [2, 6]?
Answer: 4.4%

Question: What about the Tmax ([2]; human, plasma, with or without quinidine gluconate, read-out: atogepant median tmax) of the same molecule?
Answer: 1.5 h

Question: What about the safety and tolerability [3] of the same molecule?
Answer: safe and well tolerated

Question: And the “Monthly Headache Days across 12 weeks, difference from placebo” value [4, 7]?
Answer: −1.4

Question: What about the “Monthly Headache Days across 12 weeks, mean change from baseline” value [4, 7] of the same molecule?
Answer: −4.3

Question: And the “Monthly Migraine Days (MMD) across 12 weeks, difference from placebo” value (from here on “Monthly Migraine Days … difference from placebo”) [4, 7]?
Answer: −1.1

Question: And the “Monthly Migraine Days (MMD) across 12 weeks, mean change from baseline” value [4, 7]?
Answer: −4.0

Question: And the “Monthly Headache Days across 12 weeks, difference from placebo” value [4, 8]?
Answer: −1.2

Question: What about the “Monthly Headache Days across 12 weeks, mean change from baseline” value [4, 8] of the same molecule?
Answer: −4.2

Question: What about the “Monthly Migraine Days … difference from placebo” value [4, 8] of the same molecule?
Answer: −0.9

Question: And the “Monthly Migraine Days (MMD) across 12 weeks, mean change from baseline” value [4, 8]?
Answer: −3.8

Question: And the “Monthly Headache Days across 12 weeks, difference from placebo” value [4, 9]?
Answer: −0.9

Question: And the “Monthly Headache Days across 12 weeks, mean change from baseline” value [4, 9]?
Answer: −3.9

Question: And the “Monthly Migraine Days … difference from placebo” value [4, 9]?
Answer: −0.7

Question: And the “Monthly Migraine Days (MMD) across 12 weeks, mean change from baseline” value [4, 9]?
Answer: −3.6

Question: What about the “discontinuation due to constipation” value ([5]; Studies 1 and 2) of the same molecule?
Answer: 0.5%

Question: And the “discontinuation due to fatigue/somnolence” value ([5]; Studies 1 and 2)?
Answer: 0.5%

Question: What about the “discontinuation due to nausea” value ([5]; Studies 1 and 2) of the same molecule?
Answer: 0.5%

Question: What about the “proportion of patients with a weight decrease of at least 7% at any point” value ([5]; Studies 1 and 2, atogepant 10 mg) of the same molecule?
Answer: 3.8%

Question: What about the “Constipation, incidence” value [5, 10] of the same molecule?
Answer: 6%

Question: What about the “Decreased Appetite, incidence” value [5, 10] of the same molecule?
Answer: 2%

Question: What about the “Fatigue/Somnolence, incidence” value [5, 10] of the same molecule?
Answer: 4%

Question: What about the “Nausea, incidence” value [5, 10] of the same molecule?
Answer: 5%

Question: And the “proportion of patients with a weight decrease of at least 7% at any point” value ([5]; Studies 1 and 2, atogepant 30 mg)?
Answer: 3.2%

Question: What about the “Constipation, incidence” value [5, 11] of the same molecule?
Answer: 6%

Question: What about the “Decreased Appetite, incidence” value [5, 11] of the same molecule?
Answer: 1%

Question: And the “Fatigue/Somnolence, incidence” value [5, 11]?
Answer: 4%

Question: What about the “Nausea, incidence” value [5, 11] of the same molecule?
Answer: 6%

Question: What about the “proportion of patients with a weight decrease of at least 7% at any point” value ([5]; Studies 1 and 2, atogepant 60 mg) of the same molecule?
Answer: 4.9%

Question: What about the “Constipation, incidence” value [5, 12] of the same molecule?
Answer: 6%

Question: And the “Decreased Appetite, incidence” value [5, 12]?
Answer: 2%

Question: And the “Fatigue/Somnolence, incidence” value [5, 12]?
Answer: 6%

Question: And the “Nausea, incidence” value [5, 12]?
Answer: 9%

Question: What about the “severe liver injury or jaundice” value ([5]; Study 1 and Study 2) of the same molecule?
Answer: no cases

Question: What about the “rate of transaminase elevations over 3 times the upper limit of normal” value ([5]; Study 1 and Study 2, patients treated with atogepant) of the same molecule?
Answer: 1.0%

Question: What about the “time to resolution of transaminase elevations after discontinuation” value ([5]; cases temporally associated with atogepant treatment, asymptomatic) of the same molecule?
Answer: ≤ 8 weeks

Question: What about the “inhibition of MAO-A” value (MAO-A) of the same molecule?
Answer: does not inhibit

Question: What about the “substrate of OATP1B3” value (OATP1B3) of the same molecule?
Answer: substrate

Question: And the “inhibition of BCRP” value (BCRP)?
Answer: not an inhibitor

Question: And the “inhibition of OAT3” value (OAT3)?
Answer: not an inhibitor

Question: And the “inhibition of OATP1B1” value (OATP1B1)?
Answer: weak inhibitor
